Reference: patent US20230113775A1, “ANHYDROUS COMPOSITIONS OF EGFR INHIBITORS AND METHODS OF USE” (priority 2021, published 2023)

What was measured:
[1] = tested on: 3D EI HSE; experiment: Effect of erlotinib on EI 3D HSE (morphological analysis); format: cell-based, human; conditions: 100 nM erlotinib every 72 hours until harvest at day 12; EI constructs
Method: Non-diseased cells and cells from an EI patient were plated for 3D human skim equivalent (HSE)and treated with 100 nM erlotinib from the time of lifting to the air-liquid interface every 72 hours until harvest at day 12. The samples were subjected to morphological analysis. […] (FIGS. 4A-B).

[2] = tested on: EI patient 3D human skin equivalent (HSE); experiment: Gene expression analysis, EI patient 3D HSE; format: cell-based; conditions: for CDN4 gene expression / CLDN1 gene expression / DSC1 gene expression / DSG1 gene expression / FLG gene expression / IVL gene expression / KRT10 gene expression / KRT16 gene expression / LOR gene expression / OCLN gene expression / TJP1 gene expression: Control 1.00
Method: Non-diseased cells and cells from an EI patient were plated for 3D human skin equivalent (HSE)and treated with the erlotinib at 10 nM or 100 nM from the time of lifting to the air-liquid interface every 72 hours until harvest at day 10. The samples were subjected to gene expression analysis. […] Markers of terminal differentiation such as fillaggrin (FLG) and loricrin (LOR) and markers of cell adhesion such as desmoglein 1 (DSG 1) were also modified.
Gene expression results for EI patient tissue following treatment with erlotinib: […]

[3] = Erlo 10 nM, CMH98.11 EI patient 3D HSE
[4] = Erlo 10 nM, CMH101.11 EI patient 3D HSE
[5] = Erlo 10 nM, CMH102.11 EI patient 3D HSE
[6] = Erlo 100 nM, CMH98.11 EI patient 3D HSE
[7] = Erlo 100 nM, CMH101.11 EI patient 3D HSE
[8] = Erlo 100 nM, CMH102.11 EI patient 3D HSE

C#Cc1cccc(Nc2ncnc3cc(OCCOC)c(OCCOC)cc23)c1 [erlotinib]
morphologic change in the upper epidermis [1]: marked morphologic change
keratin 10 (KRT10) expression ([2]; EI derived human keratinocytes in 3D culture, erlotinib 10 nM or 100 nM): marked increase
CDN4 gene expression [2, 3]: 0.7
CLDN1 gene expression [2, 3]: 0.9
DSC1 gene expression [2, 3]: 0.8
DSG1 gene expression [2, 3]: 1.8
FLG gene expression [2, 3]: 1.2
IVL gene expression [2, 3]: 1.3
KRT10 gene expression [2, 3]: 0.9
KRT16 gene expression [2, 3]: 1.3
LOR gene expression [2, 3]: 1.2
OCLN gene expression [2, 3]: 0.7
TJP1 gene expression [2, 3]: 0.7
CDN4 gene expression [2, 4]: 0.96
CLDN1 gene expression [2, 4]: 0.71
DSC1 gene expression [2, 4]: 0.65
DSG1 gene expression [2, 4]: 1.11
FLG gene expression [2, 4]: 1.08
IVL gene expression [2, 4]: 1.04
KRT10 gene expression [2, 4]: 1.00
KRT16 gene expression [2, 4]: 1.63
LOR gene expression [2, 4]: 1.10
OCLN gene expression [2, 4]: 0.81
TJP1 gene expression [2, 4]: 0.55
CDN4 gene expression [2, 5]: 1.86
CLDN1 gene expression [2, 5]: 0.79
DSC1 gene expression [2, 5]: 0.79
DSG1 gene expression [2, 5]: 4.72
FLG gene expression [2, 5]: 1.22
IVL gene expression [2, 5]: 1.58
KRT10 gene expression [2, 5]: 2.27
KRT16 gene expression [2, 5]: 1.31
LOR gene expression [2, 5]: 0.90
OCLN gene expression [2, 5]: 1.15
TJP1 gene expression [2, 5]: 1.13
CDN4 gene expression [2, 6]: 1.8
CLDN1 gene expression [2, 6]: 1.6
DSC1 gene expression [2, 6]: 1.7
DSG1 gene expression [2, 6]: 1.9
FLG gene expression [2, 6]: 1.1
IVL gene expression [2, 6]: 2.3
KRT10 gene expression [2, 6]: 1.6
KRT16 gene expression [2, 6]: 0.8
LOR gene expression [2, 6]: 0.6
OCLN gene expression [2, 6]: 1.2
TJP1 gene expression [2, 6]: 1.2
CDN4 gene expression [2, 7]: 0.72
CLDN1 gene expression [2, 7]: 0.37
DSC1 gene expression [2, 7]: 6.09
DSG1 gene expression [2, 7]: 2.57
FLG gene expression [2, 7]: 0.72
IVL gene expression [2, 7]: 0.83
KRT10 gene expression [2, 7]: 5.78
KRT16 gene expression [2, 7]: 0.85
LOR gene expression [2, 7]: 0.95
OCLN gene expression [2, 7]: 0.57
TJP1 gene expression [2, 7]: 0.57
CDN4 gene expression [2, 8]: 3.17
CLDN1 gene expression [2, 8]: 2.20
DSC1 gene expression [2, 8]: 2.20
DSG1 gene expression [2, 8]: 6.61
FLG gene expression [2, 8]: 2.06
IVL gene expression [2, 8]: 1.76
KRT10 gene expression [2, 8]: 6.44
KRT16 gene expression [2, 8]: 1.14
LOR gene expression [2, 8]: 0.79
OCLN gene expression [2, 8]: 1.92
TJP1 gene expression [2, 8]: 1.44
